The subject of one data set is men. The data set can be described thus: Clinical study: fatigue test, 50 maximal unilateral isokinetic leg extensions, before and after 28 days of supplementation. It counts as in vivo. Particulars: for Peak Torque: mean of first three repetitions. The procedure:
The supplements were designed to be as similar as possible in volume, color, and taste, and included 5.0 g of phosphocreatine disodium salts plus 200 mg of blueberry extract in the supplements for the Phosphocreatine/Blueberry Group, 3.0 g of creatine monohydrate for the Creatine Group, and microcrystalline cellulose for the placebo group. The bulk powder mixtures were sieved through a 60-mesh sieve to ensure inform particle size and to get rid of the agglomerates. They were then blended for one hour using an Erweka V-mixer (Model AR 403, Erweka America Inc., Edison, NJ) prior to packaging. Homogeneity of mixing was visually confirmed with the coloring agents used. Blended powders were accurately weighed (mass±1%) into individual foil lined pouches using a calibrated balance (Model SX 410, Denver Instruments, Bohemia, NY) and heat sealed. Five quality control samples were randomly selected from the packaged batch throughout the packaging process to ensure even distribution of contents, verified by mass for all samples and for creatine content in non-placebo samples by HPLC analysis.
The study was implemented as a double-blind, placebo-controlled, parallel design study. The study included a familiarization visit with each of the participants, a pre-supplementation test visit, 28 days of daily supplementation, and a post-supplementation test visit. During the testing visits, the subjects performed the fatigue test of Thorstensson and Karlsson which consisted of 50 maximal, unilateral, concentric, isokinetic leg extensions of the left leg at 180°·s^−1.
After completion of the pre-supplementation test visit, the participants were randomly assigned to one of the three groups described above. The subjects were provided with 28 days of individually packaged packets of powder of their assigned supplement and were instructed to mix the contents of the packet with 8 oz of water and drink it immediately after mixing. The subjects were instructed to maintain their usual exercise and dietary habits throughout the study. Each subject completed a 3-day dietary recall form and a 7-day exercise recall form prior to the pre-supplementation testing visit and prior to the post-supplementation testing visit to determine if there were changes in total caloric and macronutrient intake as well as exercise time during the supplementation period.
Before and after the 28 day supplementation regimens, peak torque, average power and percent decline for peak torque and average power were assessed from a fatigue test consisting of 50 maximal, unilateral, isokinetic leg extensions at 180°·s^−1.
During both pre-supplementation and post-supplementation test visits, peak torque and average power were assessed during the fatigue tests. Peak torque and average power were defined as the mean values from the first three repetitions of the fatigue test. Average power was operationally defined in the as the time averaged, integrated area under the isokinetic torque curve. To calculate the average power, the voltage-time relationships were converted to the isokinetic torque curve by converting the voltage to torque in N·m based on a regression equation. Integration of the area under the torque curve was accomplished using a custom LabVIEW program (National Instrument, Austin, TX, USA) and the average power was then calculated by dividing the integrated area under the torque curve by the time for each isokinetic repetition.

Data set [1] deals with CaCo2 cell model for intestinal barrier. Briefly: Diffusion of extract polyphenols/flavonoids through confluent CaCo2 monolayer in side by side diffusion cells. It is filed as in vitro ADME. The settings on record: 10 mM alpha, beta or gamma cyclodextrin with blueberry polyphenol solution ~1 mg/ml.
Where [2] appears, read: pre- to post-supplement, 28 days, monohydrate.

Values joined by “and” are separate entries in the source; they are usually repeats but may differ in a detail not shown here. Equal entries are not always repeated.

`CN(CC(=O)O)C(=N)N.O` [Creatine Group, creatine monohydrate]: in the data set on men (Post-Supplement (28 days)), the “Average Power” value amounted to 159.78 ± 31.20 Watts and the “Peak Torque” value was determined as 111.97 ± 24.50. In the data set on men (Pre-Supplement), the “Average Power” value is listed as 143.42 ± 33.84 Watts and the “Peak Torque” value was 99.95 ± 22.50. Further, in the data set on men (setting [2]), the “Average Power Change (%)” value is 10.22% and 10.22 ± 13.62%; the “Peak Torque Change (%)” value was 10.47% and 10.47 ± 11.03%.
Regarding `OC[C@H]1O[C@@H]2O[C@H]3[C@H](O)[C@@H](O)[C@@H](O[C@H]4[C@H](O)[C@@H](O)[C@@H](O[C@H]5[C@H](O)[C@@H](O)[C@@H](O[C@H]6[C@H](O)[C@@H](O)[C@@H](O[C@H]7[C@H](O)[C@@H](O)[C@@H](O[C@H]8[C@H](O)[C@@H](O)[C@@H](O[C@H]1[C@H](O)[C@H]2O)O[C@@H]8CO)O[C@@H]7CO)O[C@@H]6CO)O[C@@H]5CO)O[C@@H]4CO)O[C@@H]3CO` [beta cyclodextrin], in data set [1], the “effect of cyclodextrin on permeation of blueberry phenolics thru the CaCo2 membrane” value is reported as “best effect on increasing the permeation”.

(Values after patent US12543767B2, “Oral supplements containing enriched phenolic compound extracts combined with organic acid sodium salts, creatines and/or creatine salts” (Phenolics, LLC, priority 2021, dated 2026).)
